The term EC50 denotes the concentration giving half of the maximal effect.

The record followed here is ChEMBL document CHEMBL3044907, “Sensitivity of Fusarium verticillioides isolates from rice to a novel cyanoacrylate fungicide” (Crop Prot, 2012).

SMILES strings stand for the structures. In brackets after ≈: the same amount, converted by molar mass.

Data set [1] concerns Fusarium verticillioides. Kind of data set: Fungicidal activity against Fusarium verticilliodes isolate YZ06 in rice seeds harvested from bakane diseased plants assessed as number of seedlings abnormally elongated or exhibiting symptoms of damping-off at 12.5 ug/ml at 30 degC incubated for 72 hr measured after 3 days under greenhouse trials (reference value: 45.3%). In kind it is functional.

The subject of data set [2] is Fusarium verticillioides. As to the kind of experiment: Fungicidal activity against Fusarium verticilliodes isolate YZ13 in rice seeds harvested from bakane diseased plants assessed as number of seedlings abnormally elongated or exhibiting symptoms of damping-off at 6.25 ug/ml at 30 degC incubated for 72 hr measured after 3 days under greenhouse trials (reference value: 26.8%). Type of data set: functional.

Data set [3] relates to Fusarium verticillioides. As to the kind of experiment: Fungicidal activity against Fusarium verticilliodes isolate YZ12 in rice seeds harvested from bakane diseased plants assessed as number of seedlings abnormally elongated or exhibiting symptoms of damping-off at 12.5 ug/ml at 30 degC incubated for 72 hr measured after 3 days under greenhouse trials (reference value: 45.8%). Type of data set: functional.

The test system of data set [4] is Fusarium verticillioides. Kind of data set: Fungicidal activity against Fusarium verticilliodes isolate JS02 in rice seeds harvested from bakane diseased plants assessed as number of seedlings abnormally elongated or exhibiting symptoms of damping-off at 12.5 ug/ml at 30 degC incubated for 72 hr measured after 3 days under greenhouse trials (reference value: 24.9%). Type of data set: functional.

Data set [5] deals with Fusarium verticillioides. Kind of data set: Fungicidal activity against Fusarium verticilliodes isolate YZ06 in rice seeds harvested from bakane diseased plants assessed as number of seedlings abnormally elongated or exhibiting symptoms of damping-off at 25 ug/ml at 30 degC incubated for 72 hr measured after 3 days under greenhouse trials (reference value: 45.3%). Type of data set: functional.

Data set [6] deals with Fusarium verticillioides. As to the kind of experiment: Fungicidal activity against Fusarium verticilliodes isolate YZ26 in rice seeds harvested from bakane diseased plants assessed as number of seedlings abnormally elongated or exhibiting symptoms of damping-off at 8.33 ug/ml at 30 degC incubated for 72 hr measured after 3 days under greenhouse trials (reference value: 49.3%). Type of data set: functional.

In data set [7] the test system is Fusarium verticillioides. Kind of data set: Fungicidal activity against Fusarium verticilliodes isolate YZ10 in rice seeds harvested from bakane diseased plants assessed as number of seedlings abnormally elongated or exhibiting symptoms of damping-off at 25 ug/ml at 30 degC incubated for 72 hr measured after 3 days under greenhouse trials (reference value: 49.2%). Type of data set: functional.

Data set [8] relates to Fusarium verticillioides. As to the kind of experiment: Fungicidal activity against Fusarium verticilliodes isolate N04 in rice seeds harvested from bakane diseased plants assessed as number of seedlings abnormally elongated or exhibiting symptoms of damping-off at 6.25 ug/ml at 30 degC incubated for 72 hr measured after 3 days under greenhouse trials (reference value: 14.5%). Type of data set: functional.

In data set [9] the test system is Fusarium verticillioides. As to the kind of experiment: Fungicidal activity against Fusarium verticilliodes isolate N04 in rice seeds harvested from bakane diseased plants assessed as number of seedlings abnormally elongated or exhibiting symptoms of damping-off at 12.5 ug/ml at 30 degC incubated for 72 hr measured after 3 days under greenhouse trials (reference value: 14.5%). Type of data set: functional.

In data set [10] the test system is Oryza sativa. Kind of data set: Effect on germination of healthy Oryza sativa (rice) seed cultivar Fengliangyou 4 at 6.25 to 25 ug/ml at 25 degC after 72 hr. In kind it is ADME, organism-based. Conditions: in vivo.
The subject of data set [11] is Fusarium verticillioides. Kind of data set: Fungicidal activity against Fusarium verticilliodes isolate N05 in rice seeds harvested from bakane diseased plants assessed as number of seedlings abnormally elongated or exhibiting symptoms of damping-off at 12.5 ug/ml at 30 degC incubated for 72 hr measured after 3 days under greenhouse trials (reference value: 6.2%). In kind it is functional.

In data set [12] the test system is Fusarium verticillioides. Kind of data set: Fungicidal activity against Fusarium verticilliodes isolate JS05 in rice seeds harvested from bakane diseased plants assessed as number of seedlings abnormally elongated or exhibiting symptoms of damping-off at 8.33 ug/ml at 30 degC incubated for 72 hr measured after 3 days under greenhouse trials (reference value: 36.4%). Type of data set: functional.

Data set [13] relates to Fusarium verticillioides. Kind of data set: Fungicidal activity against Fusarium verticilliodes isolate YZ12 in rice seeds harvested from bakane diseased plants assessed as number of seedlings abnormally elongated or exhibiting symptoms of damping-off at 8.33 ug/ml at 30 degC incubated for 72 hr measured after 3 days under greenhouse trials (reference value: 45.8%). In kind it is functional.

The subject of data set [14] is Fusarium verticillioides. Kind of data set: Fungicidal activity against Fusarium verticilliodes isolate YZ08 in rice seeds harvested from bakane diseased plants assessed as number of seedlings abnormally elongated or exhibiting symptoms of damping-off at 25 ug/ml at 30 degC incubated for 72 hr measured after 3 days under greenhouse trials (reference value: 19.8%). Type of data set: functional.

Data set [15] deals with Fusarium verticillioides. As to the kind of experiment: Fungicidal activity against Fusarium verticilliodes isolate YZ01 in rice seeds harvested from bakane diseased plants assessed as number of seedlings abnormally elongated or exhibiting symptoms of damping-off at 25 ug/ml at 30 degC incubated for 72 hr measured after 3 days under greenhouse trials (reference value: 33.6%). In kind it is functional.

Data set [16] concerns Fusarium verticillioides. As to the kind of experiment: Fungicidal activity against Fusarium verticilliodes isolate N02 in rice seeds harvested from bakane diseased plants assessed as number of seedlings abnormally elongated or exhibiting symptoms of damping-off at 6.25 ug/ml at 30 degC incubated for 72 hr measured after 3 days under greenhouse trials (reference value: 41.2%). Type of data set: functional.

Data set [17] deals with Fusarium verticillioides. As to the kind of experiment: Fungicidal activity against Fusarium verticilliodes isolate YZ01 in rice seeds harvested from bakane diseased plants assessed as number of seedlings abnormally elongated or exhibiting symptoms of damping-off at 12.5 ug/ml at 30 degC incubated for 72 hr measured after 3 days under greenhouse trials (reference value: 33.6%). In kind it is functional.

In data set [18] the test system is Fusarium verticillioides. Kind of data set: Fungicidal activity against Fusarium verticilliodes isolate YZ11 in rice seeds harvested from bakane diseased plants assessed as number of seedlings abnormally elongated or exhibiting symptoms of damping-off at 8.33 ug/ml at 30 degC incubated for 72 hr measured after 3 days under greenhouse trials (reference value: 33.7%). Type of data set: functional.

Data set [19] deals with Fusarium verticillioides. As to the kind of experiment: Fungicidal activity against Fusarium verticilliodes isolate N01 in rice seeds harvested from bakane diseased plants assessed as number of seedlings abnormally elongated or exhibiting symptoms of damping-off at 25 ug/ml at 30 degC incubated for 72 hr measured after 3 days under greenhouse trials (reference value: 27.4%). Type of data set: functional.

Data set [20] deals with Fusarium verticillioides. As to the kind of experiment: Fungicidal activity against Fusarium verticilliodes isolate JS09 in rice seeds harvested from bakane diseased plants assessed as number of seedlings abnormally elongated or exhibiting symptoms of damping-off at 6.25 ug/ml at 30 degC incubated for 72 hr measured after 3 days under greenhouse trials (reference value: 32.6%). Type of data set: functional.

Data set [21] has as its system Fusarium verticillioides. As to the kind of experiment: Fungicidal activity against Fusarium verticilliodes assessed as mycelial growth inhibition at 25 degC after 3 to 5 days. In kind it is functional, organism-based.
Data set [22] deals with Fusarium verticillioides. As to the kind of experiment: Fungicidal activity against Fusarium verticilliodes isolate N01 in rice seeds harvested from bakane diseased plants assessed as number of seedlings abnormally elongated or exhibiting symptoms of damping-off at 8.33 ug/ml at 30 degC incubated for 72 hr measured after 3 days under greenhouse trials (reference value: 27.4%). In kind it is functional.

The subject of data set [23] is Fusarium verticillioides. As to the kind of experiment: Fungicidal activity against Fusarium verticilliodes isolate JS04 in rice seeds harvested from bakane diseased plants assessed as number of seedlings abnormally elongated or exhibiting symptoms of damping-off at 25 ug/ml at 30 degC incubated for 72 hr measured after 3 days under greenhouse trials (reference value: 16.2%). In kind it is functional.

Data set [24] relates to Fusarium verticillioides. Kind of data set: Fungicidal activity against Fusarium verticilliodes isolate YZ09 in rice seeds harvested from bakane diseased plants assessed as number of seedlings abnormally elongated or exhibiting symptoms of damping-off at 12.5 ug/ml at 30 degC incubated for 72 hr measured after 3 days under greenhouse trials (reference value: 17.5%). Type of data set: functional.

On to `CCOC(=O)/C(C#N)=C(/N)c1ccccc1`, for which the Activity was 0% in data set [1]; 0.8% in data set [2]; 0% in data set [3]; 0% in data set [4]; 0% in [5]; 1.2% in [6]. Further, the Activity in data set [7] is listed as 0%; in data set [8], 1.8%; in data set [9], 0%; in [10], “Non-toxic”; in data set [11], 0%; in data set [12], 0.2%. The Activity in data set [13] amounted to 1.4%; in [14] it was 0%; in [15], 0%; in [16] it was 2.2%; in data set [17] it was 0%; in data set [18], 0.8%. Besides, the Activity in data set [19] is 0%; in data set [20], 4.2%; in [22] it was 0%; in data set [23], 0%; in [24], 0%. Besides, the EC50 in data set [21] came to 0.316 µg/mL (≈ 1.46 µM).
